Measured values taken from patent US7196110B2, “N-substituted tricyclic 3-aminopyrazoles as inhibitors for the treatment of cell proliferative disorders” (Janssen Phamaceutica N.V., priority 2002, dated 2007).

Biological target: T1, PDGF-receptor beta enzyme comprising the tyrosine kinase domain (Homo sapiens, UniProt P09619)
T1 construct: from amino acid 545 to 1106 of GenBank Access NO: AAA36427
Experiment: Inhibition of PDGF-receptor kinase activity (cell-free, PLC1 peptide, 33P Flashplate)
Format: biochemical
Settings: PDGF-R kinase activity; for inhibition at 10 µM: compound at 10 uM, read-out: Percent Inhibition @ 10 uM; for IC50: read-out: IC50
How it was run: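 The IC50 is the inhibitor level halving kinase activity relative to inhibitor-free wells, measured as 33P captured on a streptavidin-bound biotin-PLC1 peptide. The reaction ran 60 min at 30 °C in pH 8 Tris buffer with 1 mM DTT, 5 μM ATP and the 545–1106 kinase-domain enzyme.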

T1 sequence (P09619 545-1106): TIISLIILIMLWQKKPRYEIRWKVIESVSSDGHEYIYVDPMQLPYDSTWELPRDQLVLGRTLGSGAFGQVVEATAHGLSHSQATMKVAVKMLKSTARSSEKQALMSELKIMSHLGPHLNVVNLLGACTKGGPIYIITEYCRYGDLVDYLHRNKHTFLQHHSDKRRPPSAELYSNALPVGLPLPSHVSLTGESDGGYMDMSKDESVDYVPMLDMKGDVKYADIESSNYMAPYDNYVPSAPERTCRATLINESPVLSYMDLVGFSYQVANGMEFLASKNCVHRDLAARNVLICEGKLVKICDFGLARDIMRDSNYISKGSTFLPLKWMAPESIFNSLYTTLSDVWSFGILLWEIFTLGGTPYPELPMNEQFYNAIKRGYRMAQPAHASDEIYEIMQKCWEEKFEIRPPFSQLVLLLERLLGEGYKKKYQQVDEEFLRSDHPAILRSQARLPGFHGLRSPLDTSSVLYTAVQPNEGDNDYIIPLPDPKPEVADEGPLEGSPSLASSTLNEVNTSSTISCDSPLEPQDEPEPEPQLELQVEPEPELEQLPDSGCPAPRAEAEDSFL

Q: COc1cc2c(cc1OC)-c1n[nH]c(NCc3cccc(OC)c3OC)c1C2 [Compound 322, (2,3-Dimethoxy-benzyl)-(6,7-dimethoxy-2,4-dihydro-indeno[1,2-c]pyrazol-3-yl)-amine] was tested. Which inhibition at 10 µM did it give?
A: The inhibition at 10 µM was 22%.

Q: And the IC50?
A: The IC50 was 54.7 nM.

Q: Which inhibition at 10 µM does the source give for COc1cc2c(cc1OC)-c1n[nH]c(NCc3cc(F)ccc3F)c1C2 [Compound 323, (2,5-Difluoro-benzyl)-(6,7-dimethoxy-2,4-dihydro-indeno[1,2-c]pyrazol-3-yl)-amine] here?
A: Its inhibition at 10 µM is 60.5%.

Q: What about the IC50 of the same compound?
A: The IC50 was 8710 nM.

Q: Which inhibition at 10 µM does the source give for COc1cc2c(cc1OC)-c1n[nH]c(NCc3ccccc3F)c1C2 [Compound 325, (6,7-Dimethoxy-2,4-dihydro-indeno[1,2-c]pyrazol-3-yl)-(2-fluoro-benzyl)-amine] here?
A: Its inhibition at 10 µM is 61%.

Q: And the IC50?
A: The IC50 was 96.7 nM.

Q: With COc1cc2c(cc1OC)-c1n[nH]c(NCc3cccc(Cl)c3Cl)c1C2 [Compound 326, (2,3-Dichloro-benzyl)-(6,7-dimethoxy-2,4-dihydro-indeno[1,2-c]pyrazol-3-yl)-amine] as the compound, how does the inhibition at 10 µM read?
A: The inhibition at 10 µM was 82%.

Q: What about the IC50 of the same compound?
A: The IC50 was 267 nM.

Q: With COc1cc2c(cc1OC)-c1n[nH]c(NCc3cccc(F)c3)c1C2 [Compound 327, (6,7-Dimethoxy-2,4-dihydro-indeno[1,2-c]pyrazol-3-yl)-(3-fluoro-benzyl)-amine] as the compound, how does the inhibition at 10 µM read?
A: Its inhibition at 10 µM is 52%.

Q: And the IC50?
A: Its IC50 is 10600 nM.

Q: COc1cc2c(cc1OC)-c1n[nH]c(NCc3ccc(F)cc3F)c1C2 [Compound 328, (2,4-Difluoro-benzyl)-(6,7-dimethoxy-2,4-dihydro-indeno[1,2-c]pyrazol-3-yl)-amine] was tested. Which inhibition at 10 µM did it give?
A: The inhibition at 10 µM was 78.5%.

Q: What about the IC50 of the same compound?
A: Its IC50 is 697 nM.

Q: What does the source list for COc1cc2c(cc1OC)-c1n[nH]c(NCc3ccccc3C(F)(F)F)c1C2 [Compound 329, (6,7-Dimethoxy-2,4-dihydro-indeno[1,2-c]pyrazol-3-yl)-(2-trifluoromethyl-benzyl)-amine]?
A: inhibition at 10 µM: 58%; IC50: 76.2 nM

Q: COc1cc2c(cc1OC)-c1n[nH]c(NCc3ccc(F)cc3)c1C2 [Compound 331, (6,7-Dimethoxy-2,4-dihydro-indeno[1,2-c]pyrazol-3-yl)-(4-fluoro-benzyl)-amine] was tested. Which inhibition at 10 µM did it give?
A: Its inhibition at 10 µM is 93%.

Q: What about the IC50 of the same compound?
A: Its IC50 is 189 nM.

Q: How did the inhibition at 10 µM turn out when COc1ccc(OC)c2c1Cc1c-2n[nH]c1Nc1ccccc1 [Compound 332, (5,8-Dimethoxy-2,4-dihydro-indeno[1,2-c]pyrazol-3-yl)-phenyl-amine] was run?
A: Its inhibition at 10 µM is 90%.

Q: What about the IC50 of the same compound?
A: Its IC50 is 372 nM.

Q: For COc1cc2c(cc1OC)C(C)c1c-2n[nH]c1NCc1cccc(Cl)c1 (centres unmarked) [Compound 333, (3-Chloro-benzyl)-(6,7-dimethoxy-4-methyl-2,4-dihydro-indeno[1,2-c]pyrazol-3-yl)-amine], which inhibition at 10 µM is on record?
A: The inhibition at 10 µM was 73.5%.

Q: And the IC50?
A: Its IC50 is 2550 nM.

Q: Which results are given for Fc1cccc(Nc2n[nH]c3c2Cc2sccc2-3)c1 [Compound 335, (5,7-Dihydro-1-thia-4,5-diaza-cyclopenta[a]pentalen-6-yl)-(3-fluoro-phenyl)-amine]?
A: inhibition at 10 µM: 100%; IC50: 129 nM

Q: With Cc1ccc(Cl)cc1Nc1[nH]nc2c1Cc1ccccc1-2 [Compound 338, (5-Chloro-2-methyl-phenyl)-(2,4-dihydro-indeno[1,2-c]pyrazol-3-yl)-amine] as the compound, how does the inhibition at 10 µM read?
A: The inhibition at 10 µM was 78.5%.

Q: And the IC50?
A: The IC50 was 451 nM.

Q: Which results are given for Fc1ccc(C(F)(F)F)cc1Nc1[nH]nc2c1Cc1ccccc1-2 [Compound 340, (2,4-Dihydro-indeno[1,2-c]pyrazol-3-yl)-(2-fluoro-5-trifluoromethyl-phenyl)-amine]?
A: inhibition at 10 µM: 92.5%; IC50: 105 nM

Q: COc1ccc(Cl)cc1Nc1[nH]nc2c1Cc1ccccc1-2 [Compound 342, (5-Chloro-2-methoxy-phenyl)-(2,4-dihydro-indeno[1,2-c]pyrazol-3-yl)-amine] was tested. Which inhibition at 10 µM did it give?
A: Its inhibition at 10 µM is 56.5%.

Q: And the IC50?
A: Its IC50 is 26.7 nM.

Q: Which inhibition at 10 µM does the source give for COc1cccc(Nc2[nH]nc3c2Cc2ccccc2-3)c1 [Compound 343] here?
A: The inhibition at 10 µM was 99.5%.

Q: What about the IC50 of the same compound?
A: Its IC50 is 8.08 nM.

Q: Which results are given for CCOc1cc2c(cc1OCC)C(C)c1c-2n[nH]c1Nc1cccc(F)c1 (centres unmarked) [Compound 344, (6,7-Diethoxy-4-methyl-2,4-dihydro-indeno[1,2-c]pyrazol-3-yl)-(3-fluoro-phenyl)-amine]?
A: inhibition at 10 µM: 100%; IC50: 64.7 nM

Q: CCOc1cc2c(cc1OCC)C(C)c1c-2n[nH]c1Nc1cccnc1 (centres unmarked) [Compound 345, (6,7-Diethoxy-4-methyl-2,4-dihydro-indeno[1,2-c]pyrazol-3-yl)-pyridin-3-yl-amine] was tested. Which inhibition at 10 µM did it give?
A: The inhibition at 10 µM was 88%.

Q: What about the IC50 of the same compound?
A: The IC50 was 89.3 nM.

Q: For CCOc1cc2c(cc1OCC)C(C)c1c-2n[nH]c1Nc1cccc(Br)c1 (centres unmarked) [Compound 346, (3-Bromo-phenyl)-(6,7-diethoxy-4-methyl-2,4-dihydro-indeno[1,2-c]pyrazol-3-yl)-amine], which inhibition at 10 µM is on record?
A: The inhibition at 10 µM was 98%.

Q: What about the IC50 of the same compound?
A: Its IC50 is 73.9 nM.

Q: CCOc1cc2c(cc1OCC)C(C)c1c-2n[nH]c1Nc1ccc(F)c(Cl)c1 (centres unmarked) [Compound 347] was tested. Which inhibition at 10 µM did it give?
A: Its inhibition at 10 µM is 90.5%.

Q: And the IC50?
A: The IC50 was 545 nM.

Q: CCOc1cc2c(cc1OCC)C(C)c1c-2n[nH]c1Nc1ccc(F)cc1 (centres unmarked) [Compound 349, (6,7-Diethoxy-4-methyl-2,4-dihydro-indeno[1,2-c]pyrazol-3-yl)-(4-fluoro-phenyl)-amine] was tested. Which inhibition at 10 µM did it give?
A: The inhibition at 10 µM was 78%.

Q: And the IC50?
A: Its IC50 is 80.9 nM.

Q: Which results are given for N#Cc1ccc2c(c1)CCc1c-2n[nH]c1Nc1ccccc1 [Compound 350, 3-Phenylamino-4,5-dihydro-2H-benzo[g]indazole-7-carbonitrile]?
A: inhibition at 10 µM: 91%; IC50: 651 nM

Q: CC(C)Oc1cc2c(cc1OC(C)C)C(C)c1c-2n[nH]c1Nc1cccc(F)c1 (centres unmarked) [Compound 351, (6,7-Diisopropoxy-4-methyl-2,4-dihydro-indeno[1,2-c]pyrazol-3-yl)-(3-fluoro-phenyl)-amine] was tested. Which inhibition at 10 µM did it give?
A: The inhibition at 10 µM was 93%.

Q: What about the IC50 of the same compound?
A: The IC50 was 400 nM.

Q: Which inhibition at 10 µM does the source give for CC(C)Oc1cc2c(cc1OC(C)C)C(C)c1c-2n[nH]c1Nc1cccnc1 (centres unmarked) [Compound 352, (6,7-Diisopropoxy-4-methyl-2,4-dihydro-indeno[1,2-c]pyrazol-3-yl)-pyridin-3-yl-amine] here?
A: The inhibition at 10 µM was 86.5%.

Q: What about the IC50 of the same compound?
A: Its IC50 is 755 nM.

Q: What does the source list for CC(C)Oc1cc2c(cc1OC(C)C)C(C)c1c-2n[nH]c1Nc1cccc(Br)c1 (centres unmarked) [Compound 353, (3-Bromo-phenyl)-(6,7-diisopropoxy-4-methyl-2,4-dihydro-indeno[1,2-c]pyrazol-3-yl)-amine]?
A: inhibition at 10 µM: 88%; IC50: 359 nM

Q: Which results are given for CC(C)Oc1cc2c(cc1OC(C)C)C(C)c1c-2n[nH]c1Nc1ccc(F)c(Cl)c1 (centres unmarked) [Compound 354, (3-Chloro-4-fluoro-phenyl)-(6,7-diisopropoxy-4-methyl-2,4-dihydro-indeno[1,2-c]pyrazol-3-yl)-amine]?
A: inhibition at 10 µM: 62%; IC50: 2450 nM

Q: Which inhibition at 10 µM does the source give for COc1cccc(Nc2[nH]nc3c2C(C)c2cc(OC(C)C)c(OC(C)C)cc2-3)c1 (centres unmarked) [Compound 355, (6,7-Diisopropoxy-4-methyl-2,4-dihydro-indeno[1,2-c]pyrazol-3-yl)-(3-methoxy-phenyl)-amine] here?
A: The inhibition at 10 µM was 85%.

Q: What about the IC50 of the same compound?
A: The IC50 was 1030 nM.

Q: Which inhibition at 10 µM does the source give for CC(C)Oc1cc2c(cc1OC(C)C)C(C)c1c-2n[nH]c1Nc1ccc(F)cc1 (centres unmarked) [Compound 356, (6,7-Diisopropoxy-4-methyl-2,4-dihydro-indeno[1,2-c]pyrazol-3-yl)-(4-fluoro-phenyl)-amine] here?
A: The inhibition at 10 µM was 70%.

Q: What about the IC50 of the same compound?
A: Its IC50 is 1950 nM.

Q: What does the source list for COc1cc2c(cc1F)Cc1c-2n[nH]c1Nc1cccc(F)c1 [Compound 357, (6-Fluoro-7-methoxy-2,4-dihydro-indeno[1,2-c]pyrazol-3-yl)-(3-fluoro-phenyl)-amine]?
A: inhibition at 10 µM: 98.5%; IC50: 9.42 nM

Q: Which inhibition at 10 µM does the source give for Oc1cc2c(cc1O)-c1n[nH]c(Nc3cccc(F)c3)c1C2 [Compound 362, 3-(3-Fluoro-phenylamino)-2,4-dihydro-indeno[1,2-c]pyrazole-6,7-diol] here?
A: Its inhibition at 10 µM is 80.5%.

Q: What about the IC50 of the same compound?
A: Its IC50 is 784 nM.

Q: How did the inhibition at 10 µM turn out when COc1cc2c(cc1F)Cc1c-2n[nH]c1Nc1cccnc1 [Compound 364, (6-Fluoro-7-methoxy-2,4-dihydro-indeno[1,2-c]pyrazol-3-yl)-pyridin-3-yl-amine] was run?
A: Its inhibition at 10 µM is 100%.

Q: What about the IC50 of the same compound?
A: Its IC50 is 15.1 nM.

Q: How did the inhibition at 10 µM turn out when CCOc1cc2c(cc1OCCCO)-c1n[nH]c(Nc3cccc(F)c3)c1C2 [Compound 365, 3-[6-Ethoxy-3-(3-fluoro-phenylamino)-2,4-dihydro-indeno[1,2-c]pyrazol-7-yloxy]-propan-1-ol] was run?
A: The inhibition at 10 µM was 99.5%.

Q: What about the IC50 of the same compound?
A: The IC50 was 11.3 nM.

Q: For CCOc1cc2c(cc1OCCCO)-c1n[nH]c(Nc3cccc(OC)c3)c1C2 [Compound 366, 3-[6-Ethoxy-3-(3-methoxy-phenylamino)-2,4-dihydro-indeno[1,2-c]pyrazol-7-yloxy]-propan-1-ol], which inhibition at 10 µM is on record?
A: Its inhibition at 10 µM is 100%.

Q: What about the IC50 of the same compound?
A: The IC50 was 12.1 nM.

Q: Which results are given for CCOc1cc2c(cc1OCCCO)-c1n[nH]c(Nc3cccc(Cl)c3)c1C2 [Compound 367, 3-[3-(3-Chloro-phenylamino)-6-ethoxy-2,4-dihydro-indeno[1,2-c]pyrazol-7-yloxy]-propan-1-ol]?
A: inhibition at 10 µM: 97%; IC50: 8.14 nM

Q: What does the source list for CCOc1cc2c(cc1OCCCO)-c1n[nH]c(Nc3ccc(F)c(Cl)c3)c1C2 [Compound 368, 3-[3-(3-Chloro-4-fluoro-phenylamino)-6-ethoxy-2,4-dihydro-indeno[1,2-c]pyrazol-7-yloxy]-propan-1-ol]?
A: inhibition at 10 µM: 89.5%; IC50: 62.9 nM

Q: For OCCCOc1cc2c(cc1OCCCO)-c1n[nH]c(Nc3cccnc3)c1C2 [Compound 372, 3-[7-(3-Hydroxy-propoxy)-3-(pyridin-3-ylamino)-2,4-dihydro-indeno[1,2-c]pyrazol-6-yloxy]-propan-1-ol], which inhibition at 10 µM is on record?
A: Its inhibition at 10 µM is 100%.

Q: What about the IC50 of the same compound?
A: The IC50 was 15.5 nM.

Q: For CCOc1cccc(Nc2[nH]nc3c2Cc2cc(OCC)c(OCC)cc2-3)c1 [Compound 375, (6,7-Diethoxy-2,4-dihydro-indeno[1,2-c]pyrazol-3-yl)-(3-ethoxy-phenyl)-amine], which inhibition at 10 µM is on record?
A: Its inhibition at 10 µM is 96.5%.

Q: What about the IC50 of the same compound?
A: Its IC50 is 103 nM.

Q: COc1cc2c(cc1OC)-c1n[nH]c(Nc3cccnc3Cl)c1C2 [Compound 377, (2-Chloro-pyrid-3-yl)-(6,7-dimethoxy-2,4-dihydro-indeno[1,2-c]pyrazol-3-yl)-amine] was tested. Which inhibition at 10 µM did it give?
A: Its inhibition at 10 µM is 99%.

Q: What about the IC50 of the same compound?
A: The IC50 was 8.57 nM.
